Reference: patent US20020137929A1, “1 - (3-heterocyclylphenyl) isothiourea, -isourea, -guanidine and -amidine herbicidal agents” (Intellectual Property Department, BASF Aktiengesellschaft, priority 1998, published 2002)

Legend:
[1] = tested on: AMBEL (Ragweed, Common); assay: Postemergence herbicidal evaluation; format: in vivo, Ambrosia artemisifolia; conditions: postemergence
Procedure, shortened: (§1)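 Herbicidal effect was judged by eye on a 0–9 scale covering stand, vigor, deformity, size and chlorosis, compared with controls, four to five weeks after seedlings about two weeks old were sprayed (40 psi, ~0.0156–0.500 kg/ha).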

[2] = tested on: TRZAWR (Wheat, Winter, cv Riband); assay: Postemergence herbicidal evaluation; format: in vivo, Triticum aestivum; conditions: postemergence
Procedure, shortened: as §1

[3] = tested on: CHEAL (Lambsquarters, Common); assay: Preemergence herbicidal evaluation; format: in vivo, Chenopodium album; conditions: rated 4-5 weeks after treatment; for CHEAL rating: preemergence, 0-9 scale
From the text: Results of herbicide evaluation are expressed on a rating scale (0-9). The scale is based upon a visual observation of plant stand, vigor, malformation, size, chlorosis and overall plant appearance as compared with a control.
The preemergence herbicidal activity of the test compounds of the present invention is exemplified by the following tests in which the seeds of a variety of monocotyledonous and dicotyledonous plants are separately mixed with potting soil and planted on top of approximately one inch of soil in separate pint cups. After planting, the cups are sprayed with the selected aqueous acetone solution containing test compound in sufficient quantity to provide the equivalent of about 0.0156 to 0.500 kg per hectare of test compound per cup. The treated cups are then placed on greenhouse benches, watered and cared for in accordance with conventional greenhouse procedures. From four to five weeks after treatment, the tests are terminated and each cup is examined and rated according to the rating system provided in Example 37.
The compounds evaluated are reported by compound number given in Example 37.

[4] = tested on: GALAP (Galium); assay: Postemergence herbicidal evaluation; format: in vivo, Galium aparine; conditions: postemergence
Procedure, shortened: as §1

Row | SMILES | herbicidal rating AMBEL ([1]; rate 0.0156 kg/ha) | herbicidal rating AMBEL ([1]; rate 0.0313 kg/ha) | herbicidal rating AMBEL ([1]; rate 0.0625 kg/ha) | herbicidal rating AMBEL ([1]; rate 0.1250 kg/ha) | herbicidal rating TRZAWR ([2]; rate 0.0156 kg/ha) | herbicidal rating TRZAWR ([2]; rate 0.0313 kg/ha) | herbicidal rating TRZAWR ([2]; rate 0.0625 kg/ha) | herbicidal rating TRZAWR ([2]; rate 0.1250 kg/ha) | Preemergence herbicidal rating CHEAL ([3]; rate 0.0156 kg/ha) | Preemergence herbicidal rating CHEAL ([3]; rate 0.0625 kg/ha) | Preemergence herbicidal rating CHEAL ([3]; rate 0.1250 kg/ha) | Preemergence herbicidal rating CHEAL ([3]; rate 0.2500 kg/ha) | Preemergence herbicidal rating CHEAL ([3]; rate 0.5000 kg/ha) | herbicidal rating GALAP ([4]; rate 0.0156 kg/ha) | herbicidal rating GALAP ([4]; rate 0.0313 kg/ha) | herbicidal rating GALAP ([4]; rate 0.0625 kg/ha) | herbicidal rating GALAP ([4]; rate 0.1250 kg/ha) | further results
1 | Cn1c(C(F)(F)F)cc(=O)n(-c2cc(N=C3SCC(=O)N3Cc3ccco3)c(Cl)cc2F)c1=O [Compound 122, 3-{4-Chloro-2-fluoro-5-[(3-furfuryl-4-oxo-2-thiazolidinylidene)amino]phenyl}-1-methyl-6-(trifluoromethyl)-2,4(1H,3H)-pyrimidinedione] | 7.0 | 9.0 | 9.0 | 9.0 | 3.0 | 3.5 | 4.5 | 5.0 | 9.0 | 7.0 | 9.0 | 9.0 | 9.0 | 2.0 | 2.0 | 4.0 | 6.0 | Preemergence herbicidal rating CHEAL ([3]; rate 0.0313 kg/ha): 9.0
2 | Cc1ccc(CN2C(=O)CSC2=Nc2cc(-n3c(=O)cc(C(F)(F)F)n(C)c3=O)c(F)cc2Cl)cc1C [Compound 147, 3-{4-Chloro-5-{[3-(3,4-dimethylbenzyl)-4-oxo-2-thiazolidinylidene]amino}-2-fluorophenyl}-1-methyl-6-(trifluoromethyl)-2,4(1H,3H)-pyrimidinedione] | 6.0 | 9.0 | 7.0 |  | 2.5 | 3.5 | 4.0 |  |  |  |  |  |  | 0.0 | 1.0 | 3.0 |  | Preemergence herbicidal rating CHEAL ([3]; rate 0.0156 kg/ha, rating scale 0-9): 0.0; Preemergence herbicidal rating CHEAL ([3]; rate 0.0313 kg/ha, rating scale 0-9): 0.0; Preemergence herbicidal rating CHEAL ([3]; rate 0.0625 kg/ha, rating scale 0-9): 6.0; Preemergence herbicidal rating CHEAL ([3]; rate 0.1250 kg/ha, rating scale 0-9): 9.0; Preemergence herbicidal rating CHEAL ([3]; rate 0.2500 kg/ha, rating scale 0-9): 9.0
3 | C=CCOC(=O)CN1C(=O)CSC1=Nc1cc(-n2c(=O)cc(C(F)(F)F)n(C)c2=O)c(F)cc1Cl [Compound 106, Allyl 2-{{2-chloro-5-[3,6-dihydro-3-methyl-2,6-dioxo-4-(trifluoromethyl)-1(2H)-pyrimidinyl]-4-fluorophenyl}imino}-4-oxo-3-thiazolidineacetate] |  |  |  |  |  |  |  |  | 8.0 |  |  |  |  |  |  |  |  | herbicidal rating AMBEL ([1]; rate 0.0158 kg/ha): 7.0; herbicidal rating AMBEL ([1]; rate 0.0315 kg/ha): 7.0; herbicidal rating AMBEL ([1]; rate 0.0630 kg/ha): 9.0; herbicidal rating TRZAWR ([2]; rate 0.0158 kg/ha): 2.5; herbicidal rating TRZAWR ([2]; rate 0.0315 kg/ha): 3.0; herbicidal rating TRZAWR ([2]; rate 0.0630 kg/ha): 4.5; CHEAL rating ([3]; 0.0313 kg/ha): 9.0; CHEAL rating ([3]; 0.0625 kg/ha): 9.0; CHEAL rating ([3]; 0.1250 kg/ha): 9.0; CHEAL rating ([3]; 0.2500 kg/ha): 9.0; herbicidal rating GALAP ([4]; rate 0.0158 kg/ha): 1.0; herbicidal rating GALAP ([4]; rate 0.0315 kg/ha): 1.0; herbicidal rating GALAP ([4]; rate 0.0630 kg/ha): 1.0
4 | CCOC(=O)CN1C(=O)C(Cl)SC1=Nc1cc(-n2c(=O)cc(C(F)(F)F)n(C)c2=O)c(F)cc1Cl (centres unmarked) [Compound 126, Ethyl 5-chloro-2-{{2-chloro-5-[3,6-dihydro-3-methyl-2,6-dioxo-4-(trifluoromethyl)-1(2H)-pyrimidinyl]-4-fluorophenyl}imino}-4-oxo-3-thiazolidineacetate] | 5.0 | 9.0 | 9.0 | 9.0 | 2.0 | 2.5 | 3.0 | 3.5 |  | 9.0 | 9.0 | 9.0 | 9.0 | 0.0 | 0.0 | 0.0 | 3.0 | 
